Results: US20170224852A1, “BENZAZEPIN-1-OL-DERIVED PET LIGANDS WITH HIGH IN VIVO NMDA SPECIFICITY” (ETH ZURICH, priority 2016, published 2017)

Key:
NMDA-rich brain regions [1] = biological target: T1, NMDA-rich brain regions (Rattus norvegicus, UniProt P35439+Q00960); assay: PET scans of rat brain with [11C]WMS1405; assay type: in vivo, Wistar rats; conditions: for accumulation in rat brain (PET): i.v. tail vein, 0 to 60 min p.i., baseline
T1 construct: from tissue; host or cells: brain of living Wistar rats (in vivo PET)
T1 sequence (Q00960 27-1482, other chains not shown): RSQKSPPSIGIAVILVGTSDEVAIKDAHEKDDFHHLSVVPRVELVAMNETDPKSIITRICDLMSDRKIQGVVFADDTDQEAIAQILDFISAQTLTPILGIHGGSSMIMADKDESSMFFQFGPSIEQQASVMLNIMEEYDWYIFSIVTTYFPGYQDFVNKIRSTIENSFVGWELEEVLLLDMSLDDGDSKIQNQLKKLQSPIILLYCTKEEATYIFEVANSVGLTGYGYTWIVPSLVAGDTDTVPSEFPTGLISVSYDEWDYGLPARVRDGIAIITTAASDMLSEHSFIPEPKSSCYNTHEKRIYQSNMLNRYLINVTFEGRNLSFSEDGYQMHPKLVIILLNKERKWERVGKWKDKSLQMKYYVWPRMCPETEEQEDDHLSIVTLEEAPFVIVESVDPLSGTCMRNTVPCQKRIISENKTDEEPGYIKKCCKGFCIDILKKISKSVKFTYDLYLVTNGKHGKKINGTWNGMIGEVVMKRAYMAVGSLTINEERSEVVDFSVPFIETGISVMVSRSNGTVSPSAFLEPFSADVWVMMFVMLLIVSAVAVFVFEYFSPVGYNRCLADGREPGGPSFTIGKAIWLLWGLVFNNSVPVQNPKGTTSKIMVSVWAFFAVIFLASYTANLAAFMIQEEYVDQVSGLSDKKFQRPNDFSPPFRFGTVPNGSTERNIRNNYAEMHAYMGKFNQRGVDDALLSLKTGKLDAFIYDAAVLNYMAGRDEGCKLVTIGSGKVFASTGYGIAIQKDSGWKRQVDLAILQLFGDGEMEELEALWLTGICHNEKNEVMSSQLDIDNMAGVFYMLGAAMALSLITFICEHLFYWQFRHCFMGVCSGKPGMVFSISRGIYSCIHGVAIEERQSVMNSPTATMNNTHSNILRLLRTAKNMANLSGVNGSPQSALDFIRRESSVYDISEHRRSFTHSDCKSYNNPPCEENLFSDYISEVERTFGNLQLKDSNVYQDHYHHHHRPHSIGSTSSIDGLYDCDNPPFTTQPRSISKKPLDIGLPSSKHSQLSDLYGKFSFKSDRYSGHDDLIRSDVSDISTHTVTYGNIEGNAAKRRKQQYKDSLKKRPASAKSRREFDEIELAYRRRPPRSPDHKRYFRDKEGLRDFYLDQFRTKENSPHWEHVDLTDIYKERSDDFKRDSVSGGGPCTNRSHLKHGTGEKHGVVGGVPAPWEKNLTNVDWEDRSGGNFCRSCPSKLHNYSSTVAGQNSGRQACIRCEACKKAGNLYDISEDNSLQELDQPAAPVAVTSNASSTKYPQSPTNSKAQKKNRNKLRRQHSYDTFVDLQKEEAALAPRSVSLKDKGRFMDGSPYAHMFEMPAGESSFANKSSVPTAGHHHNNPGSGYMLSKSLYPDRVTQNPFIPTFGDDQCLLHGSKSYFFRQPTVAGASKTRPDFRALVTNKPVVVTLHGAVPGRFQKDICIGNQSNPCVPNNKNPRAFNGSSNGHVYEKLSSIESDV
Description: (§1) Wistar rats (331-353 g) were under isoflurane anaesthesia (2.5-5% in oxygen/air 1/1) for all procedures and temperature and respiration were controlled with warm air and by adjusting the isoflurane dosage. A dynamic PET scan was started with a calibrated VISTA eXplore/Super Argus PET/CT scanner (Sedecal, Madrid, Sprain; axial field of view 4.8 cm) and at time zero, 32-52 MBq (0.44-0.78 nmol/kg, 250-300 μL) [^11C]NB1 were injected via a tail vein.

GluN1/GluN2B NTD = biological target: T2, GluN1/GluN2B NTD (Rattus norvegicus, UniProt P35439+Q00960); assay: In vitro autoradiography of [11C]NB1 on rat brain slices; assay type: binding; conditions: for blocking of [11C]NB1 binding to rat brain slices: 10 μM competitor with 5.4 nM [11C]NB1
T2 construct: horizontal rat brain slices (20 μm) of a male Wistar rat; from tissue; host or cells: rat brain slices (male Wistar rat)
T2 sequence (Q00960 27-1482, other chains not shown): as above
Description: After incubation, the slices were washed with HEPES/BSA for 8 min and twice with HEPES buffer for 3 min followed by two 5-second rinses with water. The dried slices were exposed for 20 min to a phosphorimager plate, read in a phosphorimager BAS5000 (Fuji, Tokyo, Japan) and analyzed with the software AIDA v. 4.5 (Raytest Isotopenmessgerate GmbH, Germany).

signal receptor [2] = biological target: T3, signal receptor (Rattus norvegicus, UniProt Q9R0C9); assay: In vitro displacement of [3H](+)pentazocine from rat brain membranes; assay type: binding; set-up: from tissue; host or cells: rat brain membranes
T3 sequence (Q9R0C9 whole entry): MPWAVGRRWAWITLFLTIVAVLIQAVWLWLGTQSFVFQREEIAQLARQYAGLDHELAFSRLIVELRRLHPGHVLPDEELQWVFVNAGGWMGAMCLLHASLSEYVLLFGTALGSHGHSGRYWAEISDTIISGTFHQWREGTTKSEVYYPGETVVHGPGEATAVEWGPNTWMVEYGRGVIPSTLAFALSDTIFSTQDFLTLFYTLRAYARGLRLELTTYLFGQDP
Description: (§2) FIG. 4A. […] One out of three independent experiments. Triplicate incubations with standard deviations. Solid line, fit IC50 function. Upper broken line, binding of 2.9 nM [^3H](+)pentazocine alone. […] Baseline and blockade (circles) as in FIGS. 2B and 2C. Squares, co-injection of 2.5 mg/kg (+)-pentazocine.
In vitro binding study with [^3H](+)pentazocine, a ligand for signal receptor.

signal receptor [3] = conditions: read-out: Kd at signal receptor; Lever et al., Synapse 2006; cited from earlier work
NMDA-rich brain regions [4] = biological target: T1, NMDA-rich brain regions; assay: PET scans of rat brain with [18F]WMS1410; assay type: in vivo, Wister rat
Description: as §1
Similar PET experimental procedure as mentioned above for [^11C]WMS1405 was applied for imaging [^18F]WMS1410 with Wister rat.

[5] = test system: GluN2B(C,D)-containing NMDA receptors; assay: PET receptor occupancy after eliprodil administration at various doses; assay type: in vivo, rat
[6] = Garrigou-Cadenne et al. 1995; cited from earlier work
signal receptor [7] = biological target: T3, signal receptor; conditions: co-injection; (+)-pentazocine 2.5 mg/kg, haloperidol 0.13 mg/kg
Description: as §2

In the case of [11CH3]Oc1ccc2c(c1)CCN(CCCCc1ccccc1)CC2O (single isomer, unassigned; stereoisomer b) [Stereoisomer B(+)], the “accumulation in rat brain (PET)” value (NMDA-rich brain regions [1]) is reported as “accumulates more than the racemate”.
With C[C@H](NC(c1cccc2[nH]c(=O)c(=O)[nH]c12)P(=O)(O)O)c1ccc(Br)cc1 (stereo partly shown) [AAM077] the “blocking of [11C]NB1 binding to rat brain slices” value (GluN1/GluN2B NTD) was “not”.
In the case of COc1ccc2c(c1)CCN(CCCCc1ccccc1)CC2O (stereo not shown) [WMS1405], the Ki (signal receptor [2]; 2.9 nM [3H](+)pentazocine, rat brain membranes) is reported as 1000 to 10000 nM and the “competition for the binding of (+)pentazocine to signal receptor” value (signal receptor [2]; in vitro) is reported as “does not compete”.
In the case of CC(C)=CCN1CC[C@]2(C)c3cc(O)ccc3C[C@H]1[C@H]2C [[^3H](+)pentazocine], the Kd (signal receptor [3]) is given as 1.6 nM.
With [11CH3]Oc1ccc2c(c1)CCN(CCCCc1ccccc1)CC2O (stereo not shown) [[^11C]WMS1405] the “accumulation in rat brain (PET)” value (NMDA-rich brain regions [1]) was “accumulates in NMDA-rich brain regions” and the “binding to rat brain slices by in vitro autoradiography” value (GluN1/GluN2B NTD; 5.4 nM tracer, 30 min, room temperature, baseline) was “high binding in most brain regions”.
For OC1CN(CCCCc2ccccc2)CCc2cc(OCC[18F])ccc21 (stereo not shown) [[^18F]WMS1410], the “accumulation in rat brain (PET)” value (NMDA-rich brain regions [4]; baseline) was “accumulates in NMDA-rich brain regions”.
For OC(CN1CCC(Cc2ccc(F)cc2)CC1)c1ccc(Cl)cc1 (stereo not shown) [eliprodil], the “blockade and displacement of [11C]WMS1405 in rat brain (PET)” value (NMDA-rich brain regions [1]; eliprodil 1 mg/kg, displacement 20 min after tracer injection) was “blocked and displaced”, the receptor occupancy ([5]; at 70 μg/kg) was 99% and the “dose for 50% receptor occupancy” value ([5]; brain stem (GluN2B-poor but GluN2D-rich)) was 7.7 nmol/kg. The “dose for 50% receptor occupancy” value ([5]; midbrain (GluN2B-poor but GluN2D-rich)) was 6.2 nmol/kg, the “blocking of [11C]NB1 binding to rat brain slices” value (GluN1/GluN2B NTD) was “blocked” and the brain/plasma ratio [6] was “about 20”. For the same compound, the “blockade of [18F]WMS1410 in rat brain (PET)” value (NMDA-rich brain regions [4]; eliprodil 1 mg/kg co-injection) was “blocked”.
In the case of CC(C)=CCN1CCC2(C)c3cc(O)ccc3CC1C2C (stereo not shown) [pentazocine], the “reduction of [11C]WMS1405 binding in vivo” value (signal receptor [7]) is reported as “reduced [^11C]WMS1405 binding to similar levels as under blocking conditions with eliprodil”.
